Reference: patent US12528814B2, “Bifunctional degraders of interleukin-1 receptor-associated kinases and therapeutic use thereof” (NURIX THERAPEUTICS, INC., priority 2020, dated 2026)
Where two headings read alike, the source gives them in different places.

Key:
IRAK4 [1] = molecular target: T1, IRAK4 (Homo sapiens (Human), UniProt Q9NWZ3); test: IRAK4 Degradation HiBiT Assay; conditions: HiBiT-tagged Jurkat cells, 4 hrs; for Dmax: Jurkat; for DC50: read-out: Cellular IRAK4 HiBiT: DC50
Target sequence in this assay (Q9NWZ3 whole entry): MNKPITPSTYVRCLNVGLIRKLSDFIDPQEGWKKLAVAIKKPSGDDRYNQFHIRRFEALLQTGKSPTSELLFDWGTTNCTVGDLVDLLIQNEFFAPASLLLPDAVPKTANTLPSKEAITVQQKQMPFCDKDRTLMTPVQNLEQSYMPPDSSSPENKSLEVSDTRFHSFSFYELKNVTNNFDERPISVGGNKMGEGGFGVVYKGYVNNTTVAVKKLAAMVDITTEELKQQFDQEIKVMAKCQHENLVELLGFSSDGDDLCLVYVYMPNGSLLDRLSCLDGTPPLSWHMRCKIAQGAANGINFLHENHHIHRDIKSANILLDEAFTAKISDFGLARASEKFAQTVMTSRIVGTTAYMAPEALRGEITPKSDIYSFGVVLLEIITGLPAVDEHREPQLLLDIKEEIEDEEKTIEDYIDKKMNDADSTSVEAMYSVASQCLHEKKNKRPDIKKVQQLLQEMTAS

IRAK4 [2] = molecular target: T1, IRAK4; test: IRAK4 Biochemical HTRF Kinase Assay; conditions: read-out: IRAK4 HTRF biochemical: IC50
Experimental: IRAK4 Biochemical HTRF Kinase Assay
The binding capacities of certain bifunctional compounds of Formula (I) were determined using the CisBio HTRF KinEASE STK S1 Kit (#62ST1PEB, contains 5× Kinase buffer, 1× Detection Buffer, anti-phospho-serine/threonine-cryptate, Streptavidin-XL665, and STK-S1), which measures the phosphorylation of a biotinylated peptide substrate by IRAK4, according to the manufacturer's protocol. […] 2 μl of a reaction solution containing 5 μM STK-S1, 10 mM ATP, and 10 mM MgCl2 were added to each well to a final volume of 10 μl. Assay controls include wells containing kinase with no compound (DMSO only) and wells containing no kinase and no compound (DMSO only). The reactions were allowed to proceed at ambient temperature for 90 minutes. […] The plates were incubated for 60 minutes at ambient temperature and then read on an Envision Multilabel Reader (PerkinElmer). […] For IC50 determination, the compounds were tested at sixteen concentrations in duplicate and curve-fitting was performed by non-linear regression analysis using GraphPad Priam.
Target sequence in this assay (Q9NWZ3 whole entry, species assumed): as the sequence (Q9NWZ3 whole entry) above

[3] = read-out: Cellular IRAK4 HiBiT: Dmax, Table 5, multiple runs
[4] = read-out: Cellular IRAK4 HiBiT: Dmax, Table 4

Compound | Dmax (IRAK4 [1]; [3]) [%] | DC50 (IRAK4 [1]; Table 5, multiple runs) [µM] | IC50 (IRAK4 [2]; Table 5, multiple runs) [µM] | Dmax (IRAK4 [1]; [4]) [%] | DC50 (IRAK4 [1]; Table 4) [µM] | IC50 (IRAK4 [2]; Table 4) [µM]
CNc1cc(-c2ccc3cc(C#N)cnn23)ncc1-c1nnc(N2CC3(CCN(C(=O)C4CCN(c5ccc6c(c5)C(=O)N(C5CCC(=O)NC5=O)C6=O)CC4)CC3)C2)s1 (centres unmarked) [Example 176, 7-(5-(5-(7-(1-(2-(2,6-dioxopiperidin-3-yl)-1,3-dioxoisoindolin-5-yl)piperidine-4-carbonyl)-2,7-diazaspiro[3.5]nonan-2-yl)-1,3,4-thiadiazol-2-yl)-4-(methylamino)pyridin-2-yl)pyrrolo[1,2-b]pyridazine-3-carbonitrile] | 105 | 0.0315 | 0.0005 | – | – | –
CC(C)Nc1cc(-c2ccc3cc(C#N)cnn23)ncc1-c1nnc(N2CCN(C(=O)C3CCN(c4ccc5c(c4)C(=O)N(C4CCC(=O)NC4=O)C5=O)CC3)CC2)s1 (centres unmarked) [Example 23, 7-{5-[5-(4-{1-[2-(2,6-dioxopiperidin-3-yl)-1,3-dioxo-2,3-dihydro-1H-isoindol-5-yl]piperidine-4-carbonyl}piperazin-1-yl)-1,3,4-thiadiazol-2-yl]-4-[(propan-2-yl)amino]pyridin-2-yl}pyrrolo[1,2-b]pyridazine-3-carbonitrile] | 108 | 0.057 | 0.0015 | 97 | 0.184 | 0.0015
CNc1cc(-c2ccc3cc(C#N)cnn23)ncc1-c1nnc(C23CCC(NC(=O)CCCC(=O)N[C@H](C(=O)N4C[C@H](O)C[C@H]4C(=O)NCc4ccc(-c5scnc5C)cc4)C(C)(C)C)(CC2)CC3)s1 [Example 141, N1-(4-(5-(6-(3-cyanopyrrolo[1,2-b]pyridazin-7-yl)-4-(methylamino)pyridin-3-yl)-1,3,4-thiadiazol-2-yl)bicyclo[2.2.2]octan-1-yl)-N5-((S)-1-((2S,4R)-4-hydroxy-2-((4-(4-methylthiazol-5-yl)benzyl)carbamoyl)pyrrolidin-1-yl)-3,3-dimethyl-1-oxobutan-2-yl)glutaramide] | 133 | 1.91 | 0.0014 | – | – | –
CNc1cc(-c2ccc3cc(C#N)cnn23)ncc1-c1nnc(C23CCC(NC(=O)C4CCN(c5cccc6c5C(=O)N(C5CCC(=O)NC5=O)C6=O)CC4)(CC2)CC3)s1 (centres unmarked) [Example 136, N-(4-(5-(6-(3-cyanopyrrolo[1,2-b]pyridazin-7-yl)-4-(methylamino)pyridin-3-yl)-1,3,4-thiadiazol-2-yl)bicyclo[2.2.2]octan-1-yl)-1-(2-(2,6-dioxopiperidin-3-yl)-1,3-dioxoisoindolin-4-yl)piperidine-4-carboxamide] | 35 | 0.0219 | – | – | – | –
CC(C)Nc1cc(-c2ccc3cc(C#N)cnn23)ncc1-c1nnc(N2CCN(CCCc3ccc4c(c3)CN(C3CCC(=O)NC3=O)C4=O)CC2)s1 (centres unmarked) [Example 27, 7-(5-(5-(4-(3-(2-(2,6-dioxopiperidin-3-yl)-1-oxoisoindolin-5-yl)propyl)piperazin-1-yl)-1,3,4-thiadiazol-2-yl)-4-(isopropylamino)pyridin-2-yl)pyrrolo[1,2-b]pyridazine-3-carbonitrile] | 57 | 0.0707 | 0.0012 | 57 | 0.0706 | 0.0003
CNc1cc(-c2ccc3cc(C#N)cnn23)ncc1-c1nnc(N2CCN(CC3CCN(c4ccc(C(=O)NC5CCC(=O)NC5=O)nc4)CC3)CC2)s1 (centres unmarked) [Example 161, 5-(4-((4-(5-(6-(3-cyanopyrrolo[1,2-b]pyridazin-7-yl)-4-(methylamino)pyridin-3-yl)-1,3,4-thiadiazol-2-yl)piperazin-1-yl)methyl)piperidin-1-yl)-N-(2,6-dioxopiperidin-3-yl)picolinamide] | 56 | 0.0246 | 0.0014 | – | – | –
CC(C)Nc1cc(-c2ccc3cc(C#N)cnn23)ncc1-c1nnc(N2CCN(C(=O)CCCCCCCNc3ccc4c(c3)C(=O)N(C3CCC(=O)NC3=O)C4=O)CC2)s1 (centres unmarked) [Example 5, 7-(5-(5-(4-(8-((2-(2,6-dioxopiperidin-3-yl)-1,3-dioxoisoindolin-5-yl)amino)octanoyl)piperazin-1-yl)-1,3,4-thiadiazol-2-yl)-4-(isopropylamino)pyridin-2-yl)pyrrolo[1,2-b]pyridazine-3-carbonitrile] | 57 | 0.0712 | 0.0039 | 57 | 0.084 | 0.0038
CC(C)Nc1cc(-c2ccc3cc(C#N)cnn23)ncc1-c1nnc(N2CCN(CCCCc3ccc4c(c3)CN(C3CCC(=O)NC3=O)C4=O)CC2)s1 (centres unmarked) [Example 26, 7-(5-(5-(4-(4-(2-(2,6-dioxopiperidin-3-yl)-1-oxoisoindolin-5-yl)butyl)piperazin-1-yl)-1,3,4-thiadiazol-2-yl)-4-(isopropylamino)pyridin-2-yl)pyrrolo[1,2-b]pyridazine-3-carbonitrile] | 87 | 0.0941 | 0.0009 | 87 | 0.0942 | 0.0009
CC(C)Nc1cc(-c2ccc3cc(C#N)cnn23)ncc1-c1nnc(N2CCC3(CCN(C(=O)c4ccc5c(c4)C(=O)N(C4CCC(=O)NC4=O)C5)CC3)CC2)s1 (centres unmarked) [Example 87, 7-(5-(5-(9-(2-(2,6-dioxopiperidin-3-yl)-3-oxoisoindoline-5-carbonyl)-3,9-diazaspiro[5.5]undecan-3-yl)-1,3,4-thiadiazol-2-yl)-4-(isopropylamino)pyridin-2-yl)pyrrolo[1,2-b]pyridazine-3-carbonitrile] | 70 | 0.0158 | 0.0024 | – | – | –
CC(C)Nc1cc(-c2ccc3cc(C#N)cnn23)ncc1-c1nnc(N2CCN(C(=O)CCCCCNc3ccc4c(c3)C(=O)N(C3CCC(=O)NC3=O)C4=O)CC2)s1 (centres unmarked) [Example 6, 7-(5-(5-(4-(6-((2-(2,6-dioxopiperidin-3-yl)-1,3-dioxoisoindolin-5-yl)amino)hexanoyl)piperazin-1-yl)-1,3,4-thiadiazol-2-yl)-4-(isopropylamino)pyridin-2-yl)pyrrolo[1,2-b]pyridazine-3-carbonitrile] | 69 | 0.07 | 0.0026 | 82 | 0.0746 | 0.0026

Further lines, results first:

Dmax (IRAK4 [1]; [3]) [%] | DC50 (IRAK4 [1]; Table 5, multiple runs) [µM] | IC50 (IRAK4 [2]; Table 5, multiple runs) [µM] | Dmax (IRAK4 [1]; [4]) [%] | DC50 (IRAK4 [1]; Table 4) [µM] | IC50 (IRAK4 [2]; Table 4) [µM] | Compound
16 | 0.612 | 0.0004 | – | – | – | CNc1cc(-c2ccc3cc(C#N)cnn23)ncc1-c1nnc([C@H]2CC[C@H](NC(=O)CCC(=O)N[C@H](C(=O)N3C[C@H](O)C[C@H]3C(=O)N[C@@H](C)c3ccccc3)C(C)(C)C)CC2)s1 [Example 173, N1-((1r,4S)-4-(5-(6-(3-cyanopyrrolo[1,2-b]pyridazin-7-yl)-4-(methylamino)pyridin-3-yl)-1,3,4-thiadiazol-2-yl)cyclohexyl)-N4—((S)-1-((2S,4R)-4-hydroxy-2-(((S)-1-phenylethyl)carbamoyl)pyrrolidin-1-yl)-3,3-dimethyl-1-oxobutan-2-yl)succinamide]
77 | 0.231 | 0.0029 | – | – | – | CNc1cc(-c2ccc3cc(C#N)cnn23)ncc1-c1nnc(N2CCC(NC(=O)C[C@H](NC(=O)[C@@H]3C[C@@H](O)CN3C(=O)[C@@H](NC(=O)C3(F)CC3)C(C)(C)C)c3ccc(-c4scnc4C)cc3)CC2)s1 [Example 146, (2S,4R)—N—((S)-3-((1-(5-(6-(3-cyanopyrrolo[1,2-b]pyridazin-7-yl)-4-(methylamino)pyridin-3-yl)-1,3,4-thiadiazol-2-yl)piperidin-4-yl)amino)-1-(4-(4-methylthiazol-5-yl)phenyl)-3-oxopropyl)-1-((S)-2-(1-fluorocyclopropane-1-carboxamido)-3,3-dimethylbutanoyl)-4-hydroxypyrrolidine-2-carboxamide]
111 | 0.0582 | 0.0015 | 103 | 0.0745 | 0.00151 | CNc1cc(-c2ccc3cc(C#N)cnn23)ncc1-c1nnc([C@H]2CC[C@H](NC(=O)CCCCCC(=O)N[C@H](C(=O)N3C[C@H](O)C[C@H]3C(=O)N[C@@H](C)c3ccc(-c4scnc4C)cc3)C(C)(C)C)CC2)s1 [Example 62, N1-((1r,4S)-4-(5-(6-(3-cyanopyrrolo[1,2-b]pyridazin-7-yl)-4-(methylamino)pyridin-3-yl)-1,3,4-thiadiazol-2-yl)cyclohexyl)-N7—((S)-1-((2S,4R)-4-hydroxy-2-(((S)-1-(4-(4-methylthiazol-5-yl)phenyl)ethyl)carbamoyl)pyrrolidin-1-yl)-3,3-dimethyl-1-oxobutan-2-yl)heptanediamide]
37 | 0.87 | 0.0016 | – | – | – | CNc1cc(-c2ccc3cc(C#N)cnn23)ncc1-c1nnc([C@H]2CC[C@H](NC(=O)[C@H]3CC[C@H]3C(=O)N[C@H](C(=O)N3C[C@H](O)C[C@H]3C(=O)N[C@@H](C)c3ccc(-c4scnc4C)cc3)C(C)(C)C)CC2)s1 (racemic) [Example 143, (1RS,2SR)—N1-((1r,4R)-4-(5-(6-(3-cyanopyrrolo[1,2-b]pyridazin-7-yl)-4-(methylamino)pyridin-3-yl)-1,3,4-thiadiazol-2-yl)cyclohexyl)-N2—((S)-1-((2S,4R)-4-hydroxy-2-(((S)-1-(4-(4-methylthiazol-5-yl)phenyl)ethyl)carbamoyl)pyrrolidin-1-yl)-3,3-dimethyl-1-oxobutan-2-yl)cyclobutane-1,2-dicarboxamide]
